Drawing on ChEMBL document CHEMBL1926613, “Bisubstrate analogue inhibitors of 6-hydroxymethyl-7,8-dihydropterin pyrophosphokinase: New design with improved properties” (Bioorg Med Chem, 2012), this text covers Kd and IC50 for 3 compounds.

Some results are limits rather than exact numbers.

Assay [1] addresses T1, 2-amino-4-hydroxy-6-hydroxymethyldihydropteridine pyrophosphokinase (Escherichia coli (strain K12), UniProt P26281).
T1 sequence (P26281 whole entry): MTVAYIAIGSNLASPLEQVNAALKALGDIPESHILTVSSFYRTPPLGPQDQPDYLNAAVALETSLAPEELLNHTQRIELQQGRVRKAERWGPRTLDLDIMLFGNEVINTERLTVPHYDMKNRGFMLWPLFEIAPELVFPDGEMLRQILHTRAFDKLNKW
As to the kind of experiment: Binding affinity to Escherichia coli HPPK using 6-hydroxymethyl-7,8-dihydropterin as substrate and ATP by fluorometric analysis.

The target in assay [2] is T1, 2-amino-4-hydroxy-6-hydroxymethyldihydropteridine pyrophosphokinase. As to the kind of experiment: Inhibition of Escherichia coli HPPK using 6-hydroxymethyl-7,8-dihydropterin as substrate and [32P]-ATP.

On to `CC1(C)Nc2nc(N)[nH]c(=O)c2N=C1C(=O)NCCN1CCC(SC[C@H]2O[C@@H](n3cnc4c(N)ncnc43)[C@H](O)[C@@H]2O)CC1`, for which the affinity in assay [1], expressed as Kd, was 2.55 µM. In addition, the IC50 in assay [2] was determined as 3.16 µM.
As for `Nc1nc2ncc(CNCCN3CCC(SC[C@H]4O[C@@H](n5cnc6c(N)ncnc65)[C@H](O)[C@@H]4O)CC3)nc2c(=O)[nH]1`, in assay [1], the Kd was more than 150 µM. The IC50 in assay [2] was more than 100 µM.
On the same counts, the results for `Nc1nc2ncc(COP(=O)(O)OP(=O)(O)OP(=O)(O)OP(=O)(O)OC[C@H]3O[C@@H](n4cnc5c(N)ncnc54)[C@H](O)[C@@H]3O)nc2c(=O)[nH]1` are 0.47 µM and 0.44 µM.
